Results from paper PMC11124387, “A Reliable Multifaceted Solution against Foodborne Viral Infections: The Case of RiLK1 Decapeptide” (Molecules, 2024).
Values joined by “and” are separate entries in the source; they are usually repeats but may differ in a detail not shown here. Identical values can stand only once. Like-named read-outs stand apart in the source and are kept apart here. Where a SMILES comes first, the peptide text is derived from it.

What was measured:
[1] = pH 2; cited from earlier work
Procedure: In this context, to acquire important information on how the conformational properties of peptides might influence the structure–function relationships and their distinct membrane interaction profiles, the propensity of the new peptides, RiLK30 and AVP2, to adopt a defined secondary structure and to undergo conformational changes were examined by circular dichroism and fluorescence spectroscopy. These analyses were performed in the presence of a negatively charged SDS that is commonly used as a biomimetic membrane model to study the structural features of membranotropic molecules. In previous ...

[2] = test system: Hepatitis A virus (HAV) strain HM-175; assay: Virucidal effect of peptides on HAV (residual infectivity by TCID50 titration on Frp3 cells); type: cell-based; conditions: for Viral Titre after Treatment: titration on Frp3 cells; for Viral Titre after Treatment / LRV (log reduction value): mean ± SD, triplicate
Text: (§1) Murine norovirus strain 1 (MNV-1) was used as a surrogate for human norovirus (NoV). The virus was replicated in RAW 264.7 cells (murine macrophage cell line) cultured in Dulbecco’s modified Eagle’s medium (DMEM) supplemented with 1% glutamine, 1% non-essential amino acids, and 2% fetal bovine serum (FBS). Hepatitis A virus (HAV) strain HM-175 was replicated in Frp3 cells (non-human primate cell line derived from fetal kidney) cultured in minimum essential medium (MEM) with Earle’s salts supplemented with 1% glutamine, 2% non-essential amino acids, and 2% FBS. Both viruses were incubated in 5% CO2 at 37 °C. All cell culture media were provided by EuroClone (Milan, Italy). The viral suspensions were prepared by freeze and thaw lysis (1 cycle for MNV-1 and 3 cycles for HAV) of infected monolayers, clarified using low-speed centrifugation (800× g) to remove residual cell debris, then divided in aliquots, and stored at −80 °C until use.
(§2) Solutions 40 µM and 80 µM of each peptide of the panel (RiLK1, RiLK3, RiLK30, 1018-K6, MTP1, and AVP2) were chosen for the virucidal tests. HAV and MNV-1 were assayed at a concentration of 4.7 ± 0.2 log TCID50/mL and 4.5 ± 0.2 log TCID50/mL, respectively. The suspensions containing the peptides and viruses were incubated for 1 h at room temperature (RT,20 ± 2 °C) and 4 °C. These temperatures were chosen to simulate the use of sanitizing solutions in food production/processing environments. Residual viral infectivity was evaluated by titration (TCID50/mL) on Frp3 cells for HAV and on RAW 264.7 cells for MNV-1. Untreated HAV and MNV-1 suspensions and 40 µM and 80 µM AMP solutions, incubated at the same conditions, were used as controls. Each treatment condition was assayed in triplicate. For titration, 100 µL of serial tenfold dilutions of each sample were assayed in 24-well tissue culture plates containing 24–48 h cell monolayers and incubated for 1 h in 5% CO2 at 37 °C. After that, the wells were washed twice with 200 µL of PBS, and 500 µL of DMEM/MEM, supplemented with 2% of FBS, were was added to each well; MNV-1 and HAV incubations were carried for up to 6 days and 14 days, respectively, in 5% CO2 at 37 °C with daily visual inspection to determine the cytopathic effect. The virucidal efficacy of AMPs was estimated by comparing the titers of treated and untreated viral suspensions.
(§3) For each treatment, the average and standard deviation of the triplicate analyses were calculated. The virucidal effects of AMPs was assessed by calculating the log reduction value (LRV), i.e., the difference between the infectious titer (log-transformed) of untreated versus treated samples. The statistical significance of differences between treated and untreated samples was determined through one-way analysis of variance (ANOVA) with Bonferroni post hoc comparisons, with a significance level of p < 0.05 (GraphPad Prism v9.5.0, software San Diego, CA, USA).

[3] = test system: Murine norovirus strain 1 (MNV-1); type: cell-based; conditions: for Viral Titre after Treatment: titration on RAW 264.7 cells; for Viral Titre after Treatment / LRV (log reduction value): mean ± SD, triplicate
Text: as §1, §2, §3

[4] = type: physicochemical
Procedure: Circular Dichroism (CD) analysis was performed by a Jasco J-810 spectropolarimeter. The samples were loaded into a quartz cuvette of 0.1 cm path length (Hellma Analytics), and the spectra were recorded in the 195–250 nm range at a scan speed of 20 nm/min, averaging 5 scans. CD experiments were carried out in 10 mM Tris-HCl buffer, pH 7.0, as a function of SDS concentrations (3, 50, and 150 mM) at a peptide concentration of 50 µM. The folding kinetic measurements of the peptides were performed after the addition of SDS (50 mM) to each sample (50 µM in 10 mM Tris-HCl, pH 7.0) up to 24 h of incubation. For thermal stability analyses, the peptides were prepared to a final concentration of 50 μM in 10 mM Tris-HCl, pH 7.0, and then they were incubated at 4 and 25 °C up to 48 h before acquiring the CD spectra in the presence of 50 mM SDS. A blank spectrum of a sample containing all components except the peptide was acquired for the baseline correction of the CD spectra of the peptide. The mean residue ellipticity ([θ], deg cm^2 dmol^−1) was obtained by the equation [θ] = 100 θ/cnl, where θ is the ellipticity (mdeg), c is the peptide concentration (mM), n is the number of residues, and l is the path length (cm).
Tryptophan (Trp) fluorescence emission spectra were recorded at 25 °C on a Shimadzu RF-6000 spectrofluorometer (Kyoto, Japan), with both excitation and emission slit widths set at 5 nm. The intrinsic Trp was excited at a wavelength of 280 nm and the emission was monitored between 300 and 400 nm. Fluorescence measurements were carried out in 10 mM Tris-HCl buffer, pH 7.0, as a function of SDS concentrations (3, 50, and 150 mM) at a peptide concentration of 50 µM. The folding kinetic experiments of AVP2 and RiLK30 were performed after the addition of SDS (50 mM) to each sample (50 µM concentration in 10 mM Tris-HCl buffer, pH 7.0) up to 24 h of incubation. The effect of temperature on peptide folding was analyzed by dissolving the peptides at a final concentration of 50 µM in 10 mM Tris-HCl buffer, pH 7.0, and incubating them at 4 and 25 °C up to 48 h. The spectra were recorded in the presence of 50 mM SDS.

[5] = HAV 4.7 ± 0.2 log TCID50/mL + peptide 80 µM, 1 h at 4 °C
[6] = HAV + peptide 40 µM, 1 h at 4 °C
[7] = HAV + peptide 40 µM, 1 h at 4 °C, untreated minus treated titre
[8] = HAV + peptide 40 µM, 1 h at RT (20 ± 2 °C)
[9] = HAV + peptide 80 µM, 1 h at 4 °C, untreated minus treated titre
[10] = HAV + peptide 80 µM, 1 h at RT (20 ± 2 °C)
[11] = maximum reduction, corresponding to the highest LRV
[12] = MNV-1 4.5 ± 0.2 log TCID50/mL + peptide 80 µM, 1 h at 4 °C
[13] = MNV-1 + peptide 40 µM, 1 h at 4 °C
[14] = MNV-1 + peptide 40 µM, 1 h at RT (20 ± 2 °C)
[15] = MNV-1 + peptide 80 µM, 1 h at 4 °C
[16] = MNV-1 + peptide 80 µM, 1 h at RT (20 ± 2 °C)

Structure (SMILES) | Viral Titre after Treatment [2, 5] [logTCID50/mL] | Viral Titre after Treatment [2, 6] [logTCID50/mL] | LRV (log reduction value) [2, 7] [logTCID50/mL] | LRV (log reduction value) [2, 8] [logTCID50/mL] | Viral Titre after Treatment [2, 8] [logTCID50/mL] | LRV (log reduction value) [2, 9] [logTCID50/mL] | LRV (log reduction value) [2, 10] [logTCID50/mL] | Viral Titre after Treatment [2, 10] [logTCID50/mL] | Viral Titre after Treatment [3, 12] [logTCID50/mL] | LRV (log reduction value) [3, 13] [logTCID50/mL] | Viral Titre after Treatment [3, 13] [logTCID50/mL] | LRV (log reduction value) [3, 14] [logTCID50/mL] | Viral Titre after Treatment [3, 14] [logTCID50/mL] | LRV (log reduction value) [3, 15] [logTCID50/mL] | LRV (log reduction value) [3, 16] [logTCID50/mL] | Viral Titre after Treatment [3, 16] [logTCID50/mL] | also measured
CC[C@H](C)[C@H](NC(=O)[C@H](CCCNC(=N)N)NC(=O)[C@@H](NC(=O)[C@H](CCCCN)NC(=O)[C@@H](NC(=O)[C@@H](NC(=O)[C@H](CC(C)C)NC(=O)[C@H](CCCNC(=N)N)NC(=O)[C@@H](N)C(C)C)[C@@H](C)CC)C(C)C)C(C)C)C(=O)N[C@@H](Cc1c[nH]c2ccccc12)C(=O)N[C@@H](CCCNC(=N)N)C(=O)N[C@@H](CCCNC(=N)N)C(N)=O [1018-K6] (H-VRLIVKVRIWRR-NH2; N-terminus assumed) | 3.3 ± 0.2 | 3.4 ± 0.1 | 1.3 ± 0.3 | 1.4 ± 0.4 | 3.3 ± 0.2 | 1.4 ± 0.4 | 1.4 ± 0.4 | 3.3 ± 0.2 | 4.3 ± 0.2 | 0 ± 0.3 | 4.5 ± 0.1 | 0 ± 0.4 | 4.5 ± 0.2 | 0.2 ± 0.4 | 0.2 ± 0.4 | 4.3 ± 0.2 | structural stability [1]: high structural stability; decrease of HAV infectious titer [2, 11]: up to 96.7%; infectivity reduction on HAV ([2]; text summary over 40 µM and 80 µM and the two temperatures (4 °C, RT)): 1.3–1.4 log; virucidal activity toward MNV-1 (in words) ([3]; 40 and 80 µM, 4 °C and RT): no significant effects
CC[C@H](C)[C@H](NC(=O)[C@H](Cc1cnc[nH]1)NC(=O)[C@H](CCCCN)NC(=O)[C@@H](NC(=O)[C@@H](NC(=O)[C@H](CC(=O)O)NC(=O)[C@H](Cc1ccccc1)NC(=O)[C@H](Cc1c[nH]c2ccccc12)NC(=O)CN)C(C)C)C(C)C)C(=O)N[C@@H](C)C(=O)N[C@@H](CCCCN)C(=O)N[C@@H](CCCNC(=N)N)C(=O)N[C@@H](Cc1ccccc1)C(N)=O [AVP2, reference compound] (H-GWFDVVKHIAKRF-NH2) | – | – | – | – | – | – | – | – | – | – | – | – | – | – | – | – | thermal (conformational) stability in SDS micellar solution ([4]; pH 7): at least 48 h
CC[C@H](C)[C@H](NC(=O)[C@H](Cc1c[nH]cn1)NC(=O)[C@H](CCCCN)NC(=O)[C@@H](NC(=O)[C@@H](NC(=O)[C@H](CC(=O)O)NC(=O)[C@H](Cc1ccccc1)NC(=O)[C@H](Cc1c[nH]c2ccccc12)NC(=O)CN)C(C)C)C(C)C)C(=O)N[C@@H](C)C(=O)N[C@@H](CCCCN)C(=O)N[C@@H](CCCNC(=N)N)C(=O)N[C@@H](Cc1ccccc1)C(N)=O [AVP2, reference compound] (H-GWFDVVKHIAKRF-NH2; N-terminus assumed) | 4.3 ± 0.2 | 4.3 ± 0.2 | 0.4 ± 0.4 | 0.4 ± 0.4 | 4.3 ± 0.2 | 0.4 ± 0.4 | 0.7 ± 0.5 | 4.0 ± 0.3 | 3.6 ± 0.1 | 0.9 ± 0.3 | 3.6 ± 0.1 | 0.9 ± 0.3 | 3.6 ± 0.1 | 0.9 ± 0.3 | 1.0 ± 0.3 | 3.5 ± 0.1 | virucidal activity toward HAV (in words) ([2]; 40 and 80 µM, 4 °C and RT): limited reduction in infectivity; LRV against MNV-1 ([3]; at both temperatures (4 °C, RT)): 0.9 log and 1.0 log; reduction of MNV-1 infectivity [3, 11]: up to 91.3%; conformational rearrangement over time (CD and fluorescence spectra) ([4]; peptide 50 µM, 10 mM Tris-HCl pH 7.0, SDS 50 mM, 24 h incubation at 37 °C (legend: 25 °C)): did not appear to undergo significant changes
